{
  "source": "paper PMC5218480",
  "about": "(PLoS ONE, 2017)",
  "system": "MV-4-11 cells",
  "test": "Gene expression microarray analysis (Affymetrix PrimeView) and GSEA",
  "assay_type": "cell-based, human",
  "parameters": "RFU PODN (11730768_x_at) / Fold change /veh PODN (11730768_x_at) / RFU LINC00158 (11744669_a_at) / Fold change /veh LINC00158 (11744669_a_at) / RFU DUSP10 (11751237_a_at) / Fold change /veh DUSP10 (11751237_a_at) / RFU ID3 (11757404_x_at) / Fold change /veh ID3 (11757404_x_at) / RFU PLEKHG5 (11737974_s_at) / Fold change /veh PLEKHG5 (11737974_s_at) / RFU LRRC4B (11730491_at) / Fold change /veh LRRC4B (11730491_at) / RFU GIMAP4 (11747438_a_at) / Fold change /veh GIMAP4 (11747438_a_at) / RFU KRT8 (11758183_x_at) / Fold change /veh KRT8 (11758183_x_at) / RFU CNN1 (11734310_a_at) / Fold change /veh CNN1 (11734310_a_at) / RFU VPS37D (11726825_at) / Fold change /veh VPS37D (11726825_at) / RFU C10orf10 (11716522_x_at) / Fold change /veh C10orf10 (11716522_x_at) / RFU KIR2DL2 /// KIR2DL4 /// KIR2DL5A /// KIR2DL5B /// KIR2DS1 /// KIR2DS2 /// KIR2DS3 /// KIR2DS4 /// KIR3DL3 /// KIR3DL3 /// KIR3DS1 (11738374_at) / Fold change /veh KIR2DL2 /// KIR2DL4 /// KIR2DL5A /// KIR2DL5B /// KIR2DS1 /// KIR2DS2 /// KIR2DS3 /// KIR2DS4 /// KIR3DL3 /// KIR3DL3 /// KIR3DS1 (11738374_at) / RFU C1QL1 (11718748_at) / Fold change /veh C1QL1 (11718748_at) / RFU TMPRSS4 (11747572_a_at) / Fold change /veh TMPRSS4 (11747572_a_at) / RFU HAMP (11756126_x_at) / Fold change /veh HAMP (11756126_x_at) / RFU RNFT2 (11725882_a_at) / Fold change /veh RNFT2 (11725882_a_at) / RFU NR4A2 (11747474_a_at) / Fold change /veh NR4A2 (11747474_a_at) / RFU ABCC12 (11746883_a_at) / Fold change /veh ABCC12 (11746883_a_at) / RFU TMEM136 (11760407_x_at) / Fold change /veh TMEM136 (11760407_x_at) / RFU CLDN22 /// WWC2 (11732394_at) / Fold change /veh CLDN22 /// WWC2 (11732394_at) / RFU HLA-DPB1 (11760878_x_at) / Fold change /veh HLA-DPB1 (11760878_x_at) / RFU SPINT1 (11716480_a_at) / Fold change /veh SPINT1 (11716480_a_at) / RFU GAP43 (11754022_s_at) / Fold change /veh GAP43 (11754022_s_at) / RFU A4GNT (11735810_at) / Fold change /veh A4GNT (11735810_at) / RFU PRB3 (11715151_x_at) / Fold change /veh PRB3 (11715151_x_at) / RFU TUBB4B (11761932_at) / Fold change /veh TUBB4B (11761932_at) / RFU CAPN14 (11732068_a_at) / Fold change /veh CAPN14 (11732068_a_at) / RFU TMCC2 (11721928_a_at) / Fold change /veh TMCC2 (11721928_a_at) / RFU IRGQ (11745062_a_at) / Fold change /veh IRGQ (11745062_a_at) / RFU FAM174B (11720279_a_at) / Fold change /veh FAM174B (11720279_a_at) / RFU TMPRSS4 (11748680_a_at) / Fold change /veh TMPRSS4 (11748680_a_at) / RFU FAM212B (11763350_a_at) / Fold change /veh FAM212B (11763350_a_at) / RFU PLEKHG5 (11743358_a_at) / Fold change /veh PLEKHG5 (11743358_a_at) / RFU ZSCAN30 (11745921_a_at) / Fold change /veh ZSCAN30 (11745921_a_at) / RFU CMKLR1 (11741424_a_at) / Fold change /veh CMKLR1 (11741424_a_at) / RFU LOC101060620 /// MAPK8IP1 (11723275_at) / Fold change /veh LOC101060620 /// MAPK8IP1 (11723275_at) / RFU SPTSSB (11747773_x_at) / Fold change /veh SPTSSB (11747773_x_at) / RFU PRSS12 (11739890_at) / Fold change /veh PRSS12 (11739890_at) / RFU BIN1 (11741810_x_at) / Fold change /veh BIN1 (11741810_x_at) / RFU WNT11 (11732464_a_at) / Fold change /veh WNT11 (11732464_a_at) / RFU C10orf10 (11716521_a_at) / Fold change /veh C10orf10 (11716521_a_at) / RFU C5orf56 (11738089_at) / Fold change /veh C5orf56 (11738089_at) / RFU CYB561 (11721691_x_at) / Fold change /veh CYB561 (11721691_x_at) / RFU ANKRD19P (11752326_a_at) / Fold change /veh ANKRD19P (11752326_a_at) / RFU OR2T12 /// OR2T33 /// OR2T8 (11738714_s_at) / Fold change /veh OR2T12 /// OR2T33 /// OR2T8 (11738714_s_at) / RFU VCAN (11748164_a_at) / Fold change /veh VCAN (11748164_a_at) / RFU JSRP1 (11732532_at) / Fold change /veh JSRP1 (11732532_at) / RFU KRTAP10-11 (11738290_x_at) / Fold change /veh KRTAP10-11 (11738290_x_at) / RFU MYO3A (11730013_a_at) / Fold change /veh MYO3A (11730013_a_at) / RFU EBF3 (11725865_a_at) / Fold change /veh EBF3 (11725865_a_at) / RFU CAMK2N1 (11719241_x_at) / Fold change /veh CAMK2N1 (11719241_x_at) / RFU C5orf56 (11738088_a_at) / Fold change /veh C5orf56 (11738088_a_at) / RFU OLFML3 (11715873_a_at) / Fold change /veh OLFML3 (11715873_a_at) / RFU LOC100653217 /// NTM (11731650_a_at) / Fold change /veh LOC100653217 /// NTM (11731650_a_at) / RFU MAPK11 (11762145_a_at) / Fold change /veh MAPK11 (11762145_a_at) / RFU FIZ1 (11724087_x_at) / Fold change /veh FIZ1 (11724087_x_at) / RFU OASL (11726364_x_at) / Fold change /veh OASL (11726364_x_at) / RFU SOX15 (11748057_x_at) / Fold change /veh SOX15 (11748057_x_at) / RFU CD79A (11719716_a_at) / Fold change /veh CD79A (11719716_a_at) / RFU HIST1H1D (11736915_at) / Fold change /veh HIST1H1D (11736915_at) / RFU CASKIN2 (11723855_a_at) / Fold change /veh CASKIN2 (11723855_a_at) / RFU LOC730098 (11760151_x_at) / Fold change /veh LOC730098 (11760151_x_at) / RFU OR4N2 (11742367_at) / Fold change /veh OR4N2 (11742367_at) / RFU PRRT2 (11749266_a_at) / Fold change /veh PRRT2 (11749266_a_at) / RFU SNX32 (11753110_a_at) / Fold change /veh SNX32 (11753110_a_at) / RFU CDHR5 (11726645_a_at) / Fold change /veh CDHR5 (11726645_a_at) / RFU RCAN1 (11760418_a_at) / Fold change /veh RCAN1 (11760418_a_at) / RFU FAM167A (11723789_a_at) / Fold change /veh FAM167A (11723789_a_at) / RFU FAM26E (11764081_at) / Fold change /veh FAM26E (11764081_at) / RFU ISYNA1 (11749810_s_at) / Fold change /veh ISYNA1 (11749810_s_at) / RFU ACY1 (11761880_at) / Fold change /veh ACY1 (11761880_at) / RFU 11764098_at / Fold change /veh 11764098_at / RFU SAMD14 (11745864_x_at) / Fold change /veh SAMD14 (11745864_x_at) / RFU NPB (11741838_a_at) / Fold change /veh NPB (11741838_a_at) / RFU TMPRSS6 (11731388_a_at) / Fold change /veh TMPRSS6 (11731388_a_at) / RFU KRTAP10-2 (11738614_at) / Fold change /veh KRTAP10-2 (11738614_at) / RFU ARHGAP8 /// PRR5-ARHGAP8 (11727945_x_at) / Fold change /veh ARHGAP8 /// PRR5-ARHGAP8 (11727945_x_at) / RFU KRTAP5-7 /// NADSYN1 (11734609_at) / Fold change /veh KRTAP5-7 /// NADSYN1 (11734609_at) / RFU RASL12 (11751679_a_at) / Fold change /veh RASL12 (11751679_a_at) / RFU CDKN2B (11736163_a_at) / Fold change /veh CDKN2B (11736163_a_at) / RFU PRF1 (11729649_at) / Fold change /veh PRF1 (11729649_at) / RFU, ZNF638 /// ZNF638-IT1 / Fold change vs veh, ZNF638 /// ZNF638-IT1 / RFU, PANK3 / Fold change vs veh, PANK3 / RFU, SH3YL1 / Fold change vs veh, SH3YL1 / RFU, ZEB2 / Fold change vs veh, ZEB2 / RFU, NRIP1 / Fold change vs veh, NRIP1 / RFU, PTTG1IP / Fold change vs veh, PTTG1IP / RFU, CAPN2 / Fold change vs veh, CAPN2 / RFU, MED14 / Fold change vs veh, MED14 / RFU, SNORA58 / Fold change vs veh, SNORA58 / RFU, C1orf63 / Fold change vs veh, C1orf63 / RFU, LRRFIP1 / Fold change vs veh, LRRFIP1 / RFU, NDUFAF7 / Fold change vs veh, NDUFAF7 / RFU, SLC12A2 / Fold change vs veh, SLC12A2 / RFU, IBTK / Fold change vs veh, IBTK / RFU, ESF1 / Fold change vs veh, ESF1 / Fold change vs veh, TMEM50B / RFU, TAOK1 / Fold change vs veh, TAOK1 / RFU, ACBD3 / Fold change vs veh, ACBD3 / RFU, TMA16 / Fold change vs veh, TMA16 / RFU, RWDD3 / Fold change vs veh, RWDD3 / RFU, BCAT1 / Fold change vs veh, BCAT1 / RFU, EDEM3 / Fold change vs veh, EDEM3 / RFU, TMEM33 / Fold change vs veh, TMEM33 / RFU, WDR75 / Fold change vs veh, WDR75 / RFU, AHCTF1 / Fold change vs veh, AHCTF1 / RFU, TFRC / Fold change vs veh, TFRC / RFU, ZDHHC17 / Fold change vs veh, ZDHHC17 / RFU, NOM1 / Fold change vs veh, NOM1 / RFU, ARL8B / Fold change vs veh, ARL8B / RFU, ZBTB11 / Fold change vs veh, ZBTB11 / RFU, TAMM41 / Fold change vs veh, TAMM41 / RFU, KIAA1704 /// LOC100996395 / Fold change vs veh, KIAA1704 /// LOC100996395 / RFU, ING1 / Fold change vs veh, ING1 / RFU, TRMT61B / Fold change vs veh, TRMT61B / RFU, FUBP3 / Fold change vs veh, FUBP3 / RFU, TP53 / Fold change vs veh, TP53 / RFU, TNKS2 / Fold change vs veh, TNKS2 / RFU, ZFP14 / Fold change vs veh, ZFP14 / RFU, ACTR2 / Fold change vs veh, ACTR2 / RFU, PPP3R1 / Fold change vs veh, PPP3R1 / RFU, PIK3R1 / Fold change vs veh, PIK3R1 / RFU, HNRNPA1 / Fold change vs veh, HNRNPA1 / RFU, RNF170 / Fold change vs veh, RNF170 / RFU, ZNF28 / Fold change vs veh, ZNF28 / RFU, RNGTT / Fold change vs veh, RNGTT / RFU, OGT / Fold change vs veh, OGT / RFU, BRD1 / Fold change vs veh, BRD1 / RFU, MARS / Fold change vs veh, MARS / RFU, ZNF655 / Fold change vs veh, ZNF655 / RFU, FAHD1 / Fold change vs veh, FAHD1 / RFU, BDP1 / Fold change vs veh, BDP1 / RFU, LRRCC1 / Fold change vs veh, LRRCC1 / RFU, ARID1A / Fold change vs veh, ARID1A / RFU, ZNF146 / Fold change vs veh, ZNF146 / RFU, ZNF330 / Fold change vs veh, ZNF330 / RFU, GPN3 / Fold change vs veh, GPN3 / RFU, C9orf123 / Fold change vs veh, C9orf123 / RFU, N4BP2L2 / Fold change vs veh, N4BP2L2 / RFU, ARFIP1 / Fold change vs veh, ARFIP1 / RFU, FAM179B / Fold change vs veh, FAM179B / RFU, BCL10 / Fold change vs veh, BCL10 / RFU, UHRF1BP1L / Fold change vs veh, UHRF1BP1L / RFU, BET1 / Fold change vs veh, BET1 / RFU, CNOT2 / Fold change vs veh, CNOT2 / RFU, ZNF268 / Fold change vs veh, ZNF268 / Fold change vs veh, ZNF507 / RFU, DGCR2 / Fold change vs veh, DGCR2 / RFU, WDSUB1 / Fold change vs veh, WDSUB1 / Fold change vs veh, HSP90B1 /// MIR3652 / RFU, ADSS / Fold change vs veh, ADSS / RFU, GK / Fold change vs veh, GK / RFU, ZNF148 / Fold change vs veh, ZNF148 / RFU, TAF9 / Fold change vs veh, TAF9 / RFU, SLC1A5 / Fold change vs veh, SLC1A5 / RFU, SLMO2 / Fold change vs veh, SLMO2 / RFU, ABCC4 / Fold change vs veh, ABCC4 / RFU, LOC101060439 /// RAP1B / Fold change vs veh, LOC101060439 /// RAP1B / RFU, RFX7 / Fold change vs veh, RFX7 / RFU, GTPBP10 / Fold change vs veh, GTPBP10 / RFU, CNEP1R1 / Fold change vs veh, CNEP1R1 / RFU, BIVM-ERCC5 /// ERCC5 / Fold change vs veh, BIVM-ERCC5 /// ERCC5 / RFU, ILF3 / Fold change vs veh, ILF3 / RFU 11762660_at / Fold change /veh 11762660_at / RFU VCAN (11757783_s_at) / Fold change /veh VCAN (11757783_s_at) / RFU DDX43 (11728927_at) / Fold change /veh DDX43 (11728927_at) / RFU KRT8 (11758188_x_at) / Fold change /veh KRT8 (11758188_x_at) / RFU NKD1 (11759106_at) / Fold change /veh NKD1 (11759106_at) / RFU SRD5A1 (11742802_a_at) / Fold change /veh SRD5A1 (11742802_a_at) / RFU TPSAB1 /// TPSB2 (11721975_s_at) / Fold change /veh TPSAB1 /// TPSB2 (11721975_s_at) / RFU GSTM3 (11746129_a_at) / Fold change /veh GSTM3 (11746129_a_at) / RFU IL23R (11737362_x_at) / Fold change /veh IL23R (11737362_x_at) / RFU TMEM51 (11727254_a_at) / Fold change /veh TMEM51 (11727254_a_at) / RFU PIWIL2 (11732686_x_at) / Fold change /veh PIWIL2 (11732686_x_at) / RFU ORM1 (11744905_x_at) / Fold change /veh ORM1 (11744905_x_at) / RFU CCDC152 (11743942_at) / Fold change /veh CCDC152 (11743942_at) / RFU ECM1 (11717891_a_at) / Fold change /veh ECM1 (11717891_a_at) / RFU IL23R (11748794_a_at) / Fold change /veh IL23R (11748794_a_at) / RFU TNFAIP8L3 (11732012_x_at) / Fold change /veh TNFAIP8L3 (11732012_x_at) / RFU MBOAT4 (11741988_at) / Fold change /veh MBOAT4 (11741988_at) / RFU 11764193_at / Fold change /veh 11764193_at / RFU TMEM53 (11763286_at) / Fold change /veh TMEM53 (11763286_at) / RFU MAGEB2 (11727129_at) / Fold change /veh MAGEB2 (11727129_at) / RFU TMEM200A (11744735_a_at) / Fold change /veh TMEM200A (11744735_a_at) / RFU CCDC152 (11751479_a_at) / Fold change /veh CCDC152 (11751479_a_at) / RFU FAM211A (11726209_a_at) / Fold change /veh FAM211A (11726209_a_at) / RFU RGS16 (11746705_a_at) / Fold change /veh RGS16 (11746705_a_at) / RFU VCAN (11755009_s_at) / Fold change /veh VCAN (11755009_s_at) / RFU RHOB (11743442_s_at) / Fold change /veh RHOB (11743442_s_at) / RFU RGS16 (11720943_a_at) / Fold change /veh RGS16 (11720943_a_at) / RFU RGS16 (11720944_at) / Fold change /veh RGS16 (11720944_at) / RFU, VPS4B / Fold change vs veh, VPS4B / RFU, CREB1 / Fold change vs veh, CREB1 / RFU, DNAJC13 / Fold change vs veh, DNAJC13 / RFU, GNAQ / Fold change vs veh, GNAQ / RFU, CDK5R1 / Fold change vs veh, CDK5R1 / RFU, ZRANB3 / Fold change vs veh, ZRANB3 / RFU, CUL4A / Fold change vs veh, CUL4A / RFU, CCNY / Fold change vs veh, CCNY / RFU, UFL1 / Fold change vs veh, UFL1 / RFU, COG3 / Fold change vs veh, COG3 / RFU, DIAPH2 / Fold change vs veh, DIAPH2 / RFU, SKA2 / Fold change vs veh, SKA2 / RFU, AFF3 / Fold change vs veh, AFF3 / RFU, LMF1 / Fold change vs veh, LMF1 / RFU, IPO11 / Fold change vs veh, IPO11 / RFU, DFFB / Fold change vs veh, DFFB / RFU, FOXP1 / Fold change vs veh, FOXP1 / RFU, CARD8 / Fold change vs veh, CARD8 / RFU, STRN3 / Fold change vs veh, STRN3 / RFU, ADK / Fold change vs veh, ADK / RFU, RASSF2 / Fold change vs veh, RASSF2 / RFU, WIPF1 / Fold change vs veh, WIPF1 / RFU, LARP1B / Fold change vs veh, LARP1B / RFU, RASA1 / Fold change vs veh, RASA1 / RFU, RB1 / Fold change vs veh, RB1 / RFU, PPFIA1 / Fold change vs veh, PPFIA1 / RFU, MAT2A / Fold change vs veh, MAT2A / RFU, CCT5 / Fold change vs veh, CCT5 / RFU, WDR92 / Fold change vs veh, WDR92 / RFU, CUX1 / Fold change vs veh, CUX1 / RFU, TTC7A / Fold change vs veh, TTC7A / RFU, TMEM135 / Fold change vs veh, TMEM135 / RFU, DEPTOR / Fold change vs veh, DEPTOR / RFU, CPM / Fold change vs veh, CPM / RFU, DNAJB6 / Fold change vs veh, DNAJB6 / RFU, CACNA2D3 / Fold change vs veh, CACNA2D3 / RFU, DTX4 / Fold change vs veh, DTX4 / RFU, TFCP2 / Fold change vs veh, TFCP2 / RFU, GMCL1 /// GMCL1P1 / Fold change vs veh, GMCL1 /// GMCL1P1 / RFU, AEBP2 / Fold change vs veh, AEBP2 / RFU, SNHG1 /// SNORD22 /// SNORD25 /// SNORD26 /// SNORD27 /// SNORD28 /// SNORD29 /// SNORD31 / Fold change vs veh, SNHG1 /// SNORD22 /// SNORD25 /// SNORD26 /// SNORD27 /// SNORD28 /// SNORD29 /// SNORD31 / Fold change (Aza/veh), C12orf56 (ProbeSet 11735607_a_at) / Fold change (ACY-1035/veh), C12orf56 (ProbeSet 11735607_a_at) / Fold change (Aza/veh), FGFR1OP (ProbeSet 11751329_s_at) / Fold change (ACY-1035/veh), FGFR1OP (ProbeSet 11751329_s_at) / Fold change (Aza/veh), VPS36 (ProbeSet 11739960_a_at) / Fold change (ACY-1035/veh), VPS36 (ProbeSet 11739960_a_at) / RFU SYPL1 (11715823_x_at) / Fold change /veh SYPL1 (11715823_x_at) / RFU IGFBP7 (11715501_s_at) / Fold change /veh IGFBP7 (11715501_s_at) / RFU REEP3 (11722064_at) / Fold change /veh REEP3 (11722064_at) / RFU IGLL1 (11728026_x_at) / Fold change /veh IGLL1 (11728026_x_at): dose or concentration left out as unconfirmed",
  "conditions": "MV-4-11 cells, 48 hours",
  "data": [
    {"smiles": "Nc1ncn([C@@H]2O[C@H](CO)[C@@H](O)[C@H]2O)c(=O)n1", "note": "[azacitidine]", "values": [
      {"measurement": "Fold change /veh BIN1 (11741810_x_at)", "value": 1.02}
    ]}
  ]
}
